Test results reported in ChEMBL document CHEMBL1275369, “Structural insights into the hot spot amino acid residues of mushroom tyrosinase for the bindings of thujaplicins” (Bioorg Med Chem, 2010).

T1: Tyrosinase (Agaricus bisporus, UniProt O42713)
T1 sequence (O42713 whole entry): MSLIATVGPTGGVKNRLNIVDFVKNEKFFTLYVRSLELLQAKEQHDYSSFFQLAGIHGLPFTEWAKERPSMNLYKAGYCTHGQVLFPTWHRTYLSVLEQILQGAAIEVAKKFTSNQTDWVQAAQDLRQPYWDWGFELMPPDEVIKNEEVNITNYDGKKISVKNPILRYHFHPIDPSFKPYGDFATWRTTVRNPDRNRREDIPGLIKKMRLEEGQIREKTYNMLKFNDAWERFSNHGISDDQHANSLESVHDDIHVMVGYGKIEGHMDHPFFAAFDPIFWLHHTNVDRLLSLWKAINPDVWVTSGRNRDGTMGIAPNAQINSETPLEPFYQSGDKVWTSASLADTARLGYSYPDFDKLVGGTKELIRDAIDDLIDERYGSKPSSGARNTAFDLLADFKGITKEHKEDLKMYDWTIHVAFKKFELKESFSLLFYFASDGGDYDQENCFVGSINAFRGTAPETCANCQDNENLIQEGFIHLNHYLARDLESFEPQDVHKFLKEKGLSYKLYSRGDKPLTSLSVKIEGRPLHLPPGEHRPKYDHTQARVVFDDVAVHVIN

B1: Tyrosinase (Agaricus bisporus), O42713 (protein)
chain: T1 sequence (O42713 whole entry)

How the values were obtained:
[1] = target: T1, Tyrosinase; assay: Inhibition of mushroom tyrosinase after 15 mins
[2] = target: T1, Tyrosinase; assay: Competitive inhibition of mushroom tyrosinase after 15 mins by Lineweaver-Burke plot analysis
[3] = substrate: CC(C)c1ccccc(=O)c1O; conditions: Agaricus bisporus; 3 uM
Description: Inhibition of mushroom tyrosinase at 3 uM after 15 mins by Michaelis-Menten constant analysis

[4] = substrate: CC(C)c1ccccc(=O)c1O; conditions: Agaricus bisporus; 6 uM
Description: Inhibition of mushroom tyrosinase at 6 uM after 15 mins by Michaelis-Menten constant analysis

[5] = substrate: CC(C)c1cccc(=O)c(O)c1; conditions: Agaricus bisporus; 0.05 uM
Description: Inhibition of mushroom tyrosinase at 0.05 uM after 15 mins by Michaelis-Menten constant analysis

[6] = substrate: CC(C)c1cccc(=O)c(O)c1; conditions: Agaricus bisporus; 0.20 uM
Description: Inhibition of mushroom tyrosinase at 0.20 uM after 15 mins by Michaelis-Menten constant analysis

[7] = substrate: CC(C)c1ccc(O)c(=O)cc1; conditions: Agaricus bisporus; 0.02 uM
Description: Inhibition of mushroom tyrosinase at 0.02 uM after 15 mins by Michaelis-Menten constant analysis

[8] = substrate: CC(C)c1ccc(O)c(=O)cc1; conditions: Agaricus bisporus; 0.06 uM
Description: Inhibition of mushroom tyrosinase at 0.06 uM after 15 mins by Michaelis-Menten constant analysis

Molecule | IC50 [1] [nM] | Ki [2] [nM] | Km [3] [µM] | Km [4] [µM] | Km [5] [µM] | Km [6] [µM] | Km [7] [µM] | Km [8] [µM]
CC(C)c1ccccc(=O)c1O [ALPHA-THUJAPLICIN] | 9530 | 3300 |  |  |  |  |  | 
CC(C)c1ccc(O)c(=O)cc1 [GAMMA-THUJAPLICIN] | 70 | 20 |  |  |  |  |  | 
CC(C)c1cccc(=O)c(O)c1 [HINOKITIOL] | 90 | 60 |  |  |  |  |  | 
B1 |  |  | 380 | 380 | 530 | 1160 | 530 | 950
